Peptide text beside a SMILES is read from it. * marks the point of attachment. X1 = O=C(O)C1CSC(c2nc3ccc(N*)cc3s2)=N1; Cbz = O=C(OCc1ccccc1)*

Type in all cases: cell-based
Data set [1] deals with HL-60 or Jurkat. The experiment in a line: Protease retention substrate selectivity, untreated viable cells. The conditions noted are these: substrate cleavage activity above control in untreated viable cells; 15-30 minutes at 37° C. Also on record: key: None denotes no statistical activity above control population.; (+) to (+++++) denotes the range of activity above control population from modest to robust; (+) to (+++++) denotes the range of activity above control population from modest to robust; (+) to (+++++) denotes the range of activity above control population from modest to robust; (+) to (+++++) denotes the range of activity above control population from modest to robust; (+) to (+++++) denotes the range of activity above control population from modest to robust. From the text:
(§1) Ala-Ala-Phe-AMC was obtained from Promega. Z-Leu-Leu-Val-Tyr-aminoluciferin (LLVY corresponds to SEQ ID NO:18), Z-Leu-Arg-aminoluciferin, Z-Phe-Arg-aminoluciferin, Ala-Ala-Phe-aminoluciferin, (Ala-Ala-Phe)2-R110, and (Gly-Phe)2-R110 were synthesized by Promega Biosciences. Suc-Ala-Ala-Phe-AMC, H-Phe-AMC, H-Tyr-AMC, Glutyl-Ala-Ala-Phe-AMC (EMF corresponds to SEQ ID NO:32), H-Gly-Phe-AMC, Z-Gly-Ala-Met-AMC, Suc-Leu-Leu-Val-Tyr-AMC (LLVY corresponds to SEQ ID NO:18), D-Ala-Leu-Lys-AMC, H-Gly-Ala-AMC, H-Gly-Gly-AMC, Suc-Ala-Ala-Phe-AMC, Z-Arg-Leu-Arg-Gly-Gly-AMC (RLRGG corresponds to SEQ ID NO:29), Z-Leu-Arg-Gly-Gly-AMC (LRGG corresponds to SEQ ID NO:30) and Ac-Ala-Ala-Tyr-AMC were sourced from Bachem. Gly-Phe-AFC, Pro-Phe-Arg-AMC, Gly-Gly-Leu-AMC, and Ser-Tyr-AFC were obtained from Calbiochem. Z-Phe-Arg-AMC and Suc-Arg-Pro-Phe-His-Leu-Leu-Val-Tyr-AMC (RPHLLVY corresponds to SEQ ID NO:31) were purchased from Sigma.
(§2) All substrates were solubilized in DMSO from 10 to 100 mM depending upon inherent solubility. Fluorescent substrates were diluted to 100 μM to 1 mM in 10 mM Hepes, pH 7.5 or matched cell culture medium with 10% serum and added in 1/10th volumes to lysed (freeze fractured, sonicated, or detergent) or untreated viable cells in white-walled, clear bottomed 96-well plates. HL-60 or Jurkat were used in the experimentation interchangeably because of their easily manipulated suspension phenotype. Plates were incubated for 15-30 minutes at 37° C. prior to measuring fluorescence by the CYTOFLUOR® II.
(§3) Luminescent substrates were added to a luciferin detection cake (Promega V859A) resuspended in 2 ml 10 mM Hepes, pH 7.5 to 500 μM. ⅕^th volume of the proluminescent reaction mixes were added to lysed (freeze fractured, sonicated, or detergent) or untreated viable cells in white-walled, clear bottomed 96-well plates. Again, HL-60 or Jurkat were used in the experimentation interchangeably. Plates were incubated at 37° C. in a MeCour' circulating heat block controlled by a Caron 2050W exchange unit. Luminescence was measured between 15 and 30 minutes (signal steady state).
(§4) A broad variety of proteolytic substrates were examined in an effort to characterize potential substrate preferences for protease release or retention in compromised or viable cells (see Table 4). […] Non-blocked substrates (H- and the like) were examined to include the contribution of aminopeptidase activities. From this panel, at least three proteolytic profiles emerged: an aminopeptidase-like activity preferring unblocked Ala-Ala-Phe tripeptide, a proteosomal (chymotrypsin-like) activity measured by release of blocked Leu-Leu-Val-Tyr (SEQ ID NO:18) peptides, and an exceedingly labile activity by Gly-Phe, Gly-Ala, Phe-, Tyr- or Gly-Gly-Leu substrates. The latter activities were only measurable in viable, intact cells. Of further significance is that several fluorophores or proluminescent labels can be used to detect these activities, ultimately allowing for enhanced downstream multiplexing flexibility.

For data set [2], the system named is HL-60 or Jurkat. The experiment in a line: Protease release substrate selectivity, lysed (freeze fractured, sonicated, or detergent) cells. Also on record: key: None denotes no statistical activity above control population.; (+) to (+++++) denotes the range of activity above control population from modest to robust; (+) to (+++++) denotes the range of activity above control population from modest to robust; (+) to (+++++) denotes the range of activity above control population from modest to robust; (+) to (+++++) denotes the range of activity above control population from modest to robust; (+) to (+++++) denotes the range of activity above control population from modest to robust. To be noted: substrate cleavage activity above control in lysed cells; 15-30 minutes at 37° C.
Text: as §1, §2, §3, §4

For another data set, the system named is Jurkat cells. The experiment in a line: Protease retention assay formats with different peptide sequences and reporters. To be noted: viable versus lysed cells. The method, then: Actively doubling Jurkat cells were serially diluted from 37,500 cells/well in RPMI 1640+10% FBS in a white-walled, clear bottomed 96 well plate in 100 μl volumes. The cells in half of the plate were lysed with the addition of Triton X to 0.2% final. The other half of the plate wells received a matched volume (5 μl) of water vehicle. Tyr-AMC, Phe-AMC and Gly-Phe-AFC were all rehydrated in DMSO to 100 mM then diluted in RPMI 1640 to 1 mM. 1/10th volume of diluted substrates were added to the wells, mixed briefly by orbital shaking then incubated at 37° C. in 5% CO2 for up to 1.5 hours. Resulting fluorescence was measured at Ex. 360 Em. 460 and Ex. 405 and Em. 500 at 30 and 90 minutes.

In another data set the test system is SK-MEL-28 cells. The experiment in a line: Live cell protease retention multiplexed with caspase 3/7 activity, SK-MEL-28. To be noted: SK-MEL-28, serial dilutions, 5 hours. The method, then:
(§5) SK-MEL-28 or ACHN cells were seeded into white-walled, clear bottomed 96 well plates at a density of 10,000 cells per well in 100 μl volumes and allowed to attach at 37° C. in 5% CO2 for a period of 2 hours. After attachment, 50 μl of medium was carefully removed and replaced with serial dilutions of either ionomycin or staurosporine in MEM+10% FBS. Medium only served as control. The plate was incubated for an additional 5 hours. A 1 mM solution of Gly-Phe-AFC was made in MEM and added to the wells in a 1/10th volume. Resulting fluorescence was measured using a CYTOFLUOR® II. Caspase-GIo™ 3/7 reagent was then added and luminescence measure using a BMG FLUOstar Optima.

The next data set relates to ACHN cells. The experiment in a line: Live cell protease retention multiplexed with caspase 3/7 activity, ACHN. The conditions noted are these: serial dilutions, 5 hours. The method, then: as §5
The next data set relates to HL-60 cells. The experiment in a line: Luminescent protease release assay with different enzyme targets. The conditions noted are these: HL-60 with or without sonication, 15 minutes at 37° C. The method, then: Actively doubling HL-60 cells were adjusted to 100,000 cells/ml and split into two aliquots. One aliquot was sonicated using a microtip MISONIXTM™ 3000 with 30% power for three 5 second pulses. The other aliquot was held at 37° C. The cell suspension and lysates were then two-fold serially diluted in RPMI 1640 +10% FBS in 100 μl volumes. Medium only served as the no cell control. A luciferin detection reagent cake (Promega V859A) was resuspended with 2.0 ml of 10 mM Hepes, pH 7.5. The luciferin detection reagent was then divided and made 1 mM with either Z-Leu-Leu-Val-Tyr-aminoluciferin (LLVY corresponds to SEQ ID NO:18) or Ala-Ala-Phe-aminoluciferin. Each reagent was added to independent replicates of the plate in 1/10th volumes and allowed to incubate for 15 minutes at 37° C. in the Me'Cour thermal jacketed water bath holder before luminescence measurement using the BMG FLUOstar Optima.

With `NCC(=O)N[C@@H](Cc1ccccc1)C(=O)Nc1ccc2c(c1)Oc1cc(NC(=O)[C@H](Cc3ccccc3)NC(=O)CN)ccc1C21OC(=O)c2ccccc21` [(Gly-Phe)2 R110, (Gly-Phe)2-R110], the Retention entry with HL-60 or Jurkat [1] is reported as “None”. Further, the Release entry with HL-60 or Jurkat [2] is reported as “None”. In the data set on Jurkat cells, the “Suitability as live cell protease retention substrate” value is recorded as “apparently unable to effectively traverse the cell membrane or was not effectively cleaved by the candidate protease”.

`CN[C@@H]1C[C@H]2O[C@@](C)([C@@H]1OC)n1c3ccccc3c3c4c(c5c6ccccc6n2c5c31)C(=O)NC4` [staurosporine]: the “Cytotoxicity profile (live cell fluorescence and caspase 3/7 activity)” value is “caspase activation (and therefore apoptosis induction) is evident” in the data set on SK-MEL-28 cells and “apoptotic profile” in the data set on ACHN cells.

On to `CC(C)CC(NC(=O)OCc1ccccc1)C(=O)NC(CC(C)C)C(=O)NC(C(=O)NC(Cc1ccc(O)cc1)C(=O)Nc1ccc2nc(C3=NC(C(=O)O)CS3)sc2c1)C(C)C` (stereo not drawn) [Z-Leu-Leu-Val-Tyr-Aluc, Z-Leu-Leu-Val-Tyr-aminoluciferin] (Cbz-LLVY-X1; configuration not given here), for which the Retention entry with HL-60 or Jurkat [1] is on record as “None”. In the data set on HL-60 or Jurkat [2], the Release result is on record as “++”. In the data set on HL-60 cells, the “Performance as protease release substrate” value is reported as “performed less optimally than the AAF-aminoluciferin sequence”.

Consider `C[C@H](CCC(=O)O)C[C@H](C)C[C@H](C)C(=O)/C=C(\O)[C@H](C)C[C@H](C)C/C=C/[C@@H](C)[C@@H](O)[C@@H](C)[C@@H](O)C[C@@H]1CC[C@@](C)([C@H]2CC[C@@](C)([C@@H](C)O)O2)O1` [ionomycin], for which the “Cytotoxicity profile (live cell fluorescence and caspase 3/7 activity)” value with SK-MEL-28 cells is “necrotic-type profile”.

These data come from US8476036B2, “Nonluminogenic assay for living cells” (Promega Corporation, priority 2004, dated 2013).
